Results reported in patent publication US5747448A, “Derivatives of cyclodepsipeptide PF 1022” (Meiji Seika Kaisha, Ltd., priority 1993, dated 1998).
Where two headings read alike, the source gives them in different places.

Columns and labels:
Haemonchus contortus = assay: In vivo Anthelmintic Activity Test on Nematodes in sheep (egg excretion); set-up: key: "0" when there were no anthelmintic activities; "2" when excretion of parasite's eggs was observed; "3" when excretion of parasite's eggs stopped, that is, parasitic worms were removed completely; settings: parasitic worms H, oral gelatin capsule
Description: (§1) Test 2 In vivo Anthelmintic Activity Test on Nematodes To each sheep which had artificially been infected with Trichostrongylus colubriformis (hereinafter abbreviated as "T") and Haemonchus contortus (hereinafter abbreviated as […]), respectively, a test substance weighed in a dose accurately calculated from the weight […] of the sheep was orally administered in the form of a gelatin capsule. The number of parasite's eggs excreted with feces from the sheep was counted quantitatively before and after the administration so that the degree of anthelmintic effects was determined. The anthelmintic effects are evaluated by rated numeral 0, 1, 2 or 3. The anthelmintic effects are rated "0" when there were no anthelmintic activities, "2" when excretion of parasite's eggs was observed, and "3" when excretion of parasite's eggs stopped, that is, parasitic worms were removed completely.

fowl roundworms = assay: Fowl Roundworm Eliminating Test; assay type: in vivo; settings: infected fowls, worms counted to day 7
Experimental: Test 1 Fowl Roundworm Eliminating Test Fowls (three fowls per group), which had been artificially infected with fowl roundworms and whose infection therewith had been confirmed by scatoscopy, were used as experimental animals. Upon administration of each test substance, the test substance weighed in a dose (mg) accurately calculated on the basis of the body weight (kg) of each fowl was suspended in carboxymethylcellulose-containing water, and the resulting suspension was administered orally as a single dose unit using a stomach tube. After the administration, the worms eliminated from the fowls were counted daily. Seven days after the administration, the fowl was sacrificed and autopsied and the worms remaining in its intestinal tract were counted. The percent elimination was calculated in accordance with the following calculation equation: [formula] Each test substance is indicated by the corresponding substance code name shown above in Table 1.

[1] = amide bond, 24-membered ring, THF/DMF
[2] = tested on: Trichostrongylus colubriformis; assay: In vivo Anthelmintic Activity Test on Nematodes in sheep (egg excretion); set-up: key: "0" when there were no anthelmintic activities; "2" when excretion of parasite's eggs was observed; "3" when excretion of parasite's eggs stopped, that is, parasitic worms were removed completely; settings: parasitic worms T, oral gelatin capsule, 0.5 mg/kg
Description: as §1

[3] = tested on: Nippostrongylus brasillensis; assay: Anthelmintic effects on a rat intestinal nematode (N. brasillensis-infected rats); assay type: in vivo; settings: male Wistar rats; for Number of remaining worms (average value ± SD): 10 mg/kg p.o. 7 days after inoculation, autopsy 10 days after inoculation; for % Effectiveness: 10 mg/kg p.o., compared with infected control group
Experimental: Anthelmintic effects of certain PF1022 derivatives on a rat intestinal nematode were tested in accordance with the following method.
Sixteen male Wistar rats were divided into eight groups (two rats per group), and about 2,000 larval worms of Nippostrongylus brasillensis were hypodermically inoculated per rat. Seven days after the inoculation, PF1022, PF1022E, PF1022-002, PF1022-003, PF1022-209, PF1022-218 and PF1022-219 were, as test substances, forcedly administered p.o. to the rats in the groups, respectively, in an amount of 10 mg/kg per rat. Upon administration, each test substance (8 mg) was dissolved in 0.2 ml of dimethyl sulfoxide and then, the resultant solution was diluted with distilled water to give a 2 ml suspension. Ten days after the inoculation,the rats were each subjected to autopsy and imaginal worms parasitic on the small intestines were counted.
As the test results, the average of remaining worms in each of the eight groups and the percent effectiveness of the test substance in each group as compared with that of the infected control group are shown in Table 4.

CC(C)C[C@H]1C(=O)O[C@H](Cc2ccc(OC(C)(C)C)cc2)C(=O)N(C)[C@@H](CC(C)C)C(=O)O[C@H](C)C(=O)N(C)[C@@H](CC(C)C)C(=O)O[C@H](Cc2ccccc2)C(=O)N(C)[C@@H](CC(C)C)C(=O)O[C@H](C)C(=O)N1C [PF1022-215, cyclo-(L-MeLeu-D-PhLac-L-MeLeu-D-Lac-L-MeLeu-D-TYRA(O-t-Bu)-L-MeLeu-D-Lac)]
Degree of effects (Haemonchus contortus; 0.25 mg/kg): 3
% Elimination (fowl roundworms; single oral dose 1.0 mg/kg): 37%
% Elimination (fowl roundworms; single oral dose 2.0 mg/kg): 98%

CC(C)CC1C(=O)OC(Cc2ccc(OCc3ccccc3)cc2)C(=O)N(C)C(CC(C)C)C(=O)OC(C)C(=O)N(C)C(CC(C)C)C(=O)OC(Cc2ccc(OCc3ccccc3)cc2)C(=O)N(C)C(CC(C)C)C(=O)OC(C)C(=O)N1C [PF1022-201, cyclo-(L-MeLeu-D-Lac-L-MeLeu-D-TYRA(OBn))2]
Degree of effects (Haemonchus contortus; 0.1 mg/kg): 1
Degree of effects (Haemonchus contortus; 0.25 mg/kg): 3

CCCCCC[C@H]1OC(=O)[C@H](CC(C)C)N(C)C(=O)[C@@H](C)OC(=O)[C@H](CC(C)C)N(C)C(=O)[C@@H](Cc2ccccc2)OC(=O)[C@H](CC(C)C)N(C)C(=O)[C@@H](C)OC(=O)[C@H](CC(C)C)N(C)C1=O
ring closure, isolated yield ([1]; from H-MeLeu-dOctA-MeLeu-dLac-MeLeu-dPhLac-MeLeu-dLac-OH, EDCI.HCl/HOBt/NMM/LiCl/NaCl/KCl/CsCl, 0.95 mM): 24.7%

CC(C)C[C@H]1C(=O)O[C@H](C(C)C)C(=O)N(C)[C@@H](CC(C)C)C(=O)O[C@H](C)C(=O)N(C)[C@@H](CC(C)C)C(=O)O[C@H](C(C)C)C(=O)N(C)[C@@H](CC(C)C)C(=O)O[C@H](C)C(=O)N1C [Cyclo-(L-MeLeu-D-VALA-L-MeLeu-D-Lac)2]
ring closure, isolated yield ([1]; from H-MeLeu-dVALA-MeLeu-dLac-MeLeu-dVALA-MeLeu-dLac-OH, EDCI.HCl/HOBt/NMM/LiCl/NaCl/KCl/CsCl, 0.88 mM): 92%

CC(C)C[C@H]1C(=O)O[C@H](Cc2ccc(OCc3ccccc3)cc2)C(=O)N(C)[C@@H](CC(C)C)C(=O)O[C@H](C)C(=O)N(C)[C@@H](CC(C)C)C(=O)O[C@H](Cc2ccc(OCc3ccccc3)cc2)C(=O)N(C)[C@@H](CC(C)C)C(=O)O[C@H](C)C(=O)N1C [cyclo-(L-MeLeu-D-Lac-L-MeLeu-D-TYRA(OBn))2]
ring closure, isolated yield ([1]; from H-MeLeu-dLac-MeLeu-dTYRA(OBn)-MeLeu-dLac-MeLeu-dTYRA(OBn)-OH, EDCI.HCl/HOBt/NMM/LiCl/NaCl/KCl/CsCl, 0.66 mM, 25.0 °C): 60.5%

CC(C)C[C@H]1C(=O)O[C@H](Cc2ccccc2)C(=O)N(C)[C@@H](CC(C)C)C(=O)O[C@H](C)C(=O)N(C)[C@@H](CC(C)C)C(=O)O[C@H](Cc2ccccc2)C(=O)N(C)[C@@H](CC(C)C)C(=O)O[C@H](C)C(=O)N1C [PF1022, Cyclo-(L-MeLeu-D-Lac-L-MeLeu-D-PhLac-L-MeLeu-D-Lac-L-MeLeu-D-PhLac), reference compound]
Degree of effects (Haemonchus contortus; 0.05 mg/kg): 3
Degree of effects [2]: 3
Number of remaining worms (average value ± SD) [3]: 403 ± 32.5
% Effectiveness ([3]; 10 mg/kg): 80%
% Effectiveness ([3]; listed as PF 1022, 10 mg/kg): 80.2%
% Elimination (fowl roundworms; single oral dose 0.5 mg/kg): 50-70%
% Elimination (fowl roundworms; single oral dose 1.0 mg/kg): 60-86%
% Elimination (fowl roundworms; single oral dose 2.0 mg/kg): 100%

CC(C)C[C@H]1OC(=O)[C@H](CC(C)C)N(C)C(=O)[C@@H](C)OC(=O)[C@H](CC(C)C)N(C)C(=O)[C@@H](Cc2ccccc2)OC(=O)[C@H](CC(C)C)N(C)C(=O)[C@@H](C)OC(=O)[C@H](CC(C)C)N(C)C1=O [PF1022-003, cyclo-(-L-MeLeu-D-Lac-L-MeLeu-D-PhLac-L-MeLeu-D-Lac-L-MeLeu-D-LEUA-)]
Number of remaining worms (average value ± SD) [3]: 689 ± 48.1
% Effectiveness [3]: 66.1%
ring closure, isolated yield ([1]; from H-MeLeu-dLEUA-MeLeu-dLac-MeLeu-dPhLac-MeLeu-dLac-OH, EDCI.HCl/HOBt/NMM/KCl/CsCl, 3 steps): 44%
% Elimination (fowl roundworms; single oral dose 10 mg/kg): 76%

CCCC[C@H]1OC(=O)[C@H](CC(C)C)N(C)C(=O)[C@@H](Cc2ccccc2)OC(=O)[C@H](CC(C)C)N(C)C(=O)[C@@H](C)OC(=O)[C@H](CC(C)C)N(C)C(=O)[C@@H](Cc2ccccc2)OC(=O)[C@H](CC(C)C)N(C)C1=O
ring closure, isolated yield ([1]; from H-MeLeu-dLac-MeLeu-dPhLac-MeLeu-dnorLEUA-MeLeu-dPhLac-OH, EDCI.HCl/HOBt/NMM/LiCl/NaCl/KCl/CsCl, 0.76 mM): 82%

CC(C)C[C@@H]1NC(=O)[C@@H](C)OC(=O)[C@H](CC(C)C)N(C)C(=O)[C@@H](Cc2ccccc2)OC(=O)[C@H](CC(C)C)NC(=O)[C@@H](C)OC(=O)[C@H](CC(C)C)N(C)C(=O)[C@@H](Cc2ccccc2)OC1=O [PF1022-219, cyclo-(L-MeLeu-D-Lac-L-Leu-D-PhLac)2]
Degree of effects [2]: 3
Number of remaining worms (average value ± SD) [3]: 2084.5
% Effectiveness [3]: 0%
